The numbers were not newly measured in US20080287519A1, “Amorphous eletriptan hydrobromide and process for preparing it and other forms of eletriptan hydrobromide” (priority 2007, published 2008), which cites them from elsewhere.

One data set addresses T1, 5-HT2C receptor (Homo sapiens, UniProt P28335).
T1 sequence (P28335 33-458): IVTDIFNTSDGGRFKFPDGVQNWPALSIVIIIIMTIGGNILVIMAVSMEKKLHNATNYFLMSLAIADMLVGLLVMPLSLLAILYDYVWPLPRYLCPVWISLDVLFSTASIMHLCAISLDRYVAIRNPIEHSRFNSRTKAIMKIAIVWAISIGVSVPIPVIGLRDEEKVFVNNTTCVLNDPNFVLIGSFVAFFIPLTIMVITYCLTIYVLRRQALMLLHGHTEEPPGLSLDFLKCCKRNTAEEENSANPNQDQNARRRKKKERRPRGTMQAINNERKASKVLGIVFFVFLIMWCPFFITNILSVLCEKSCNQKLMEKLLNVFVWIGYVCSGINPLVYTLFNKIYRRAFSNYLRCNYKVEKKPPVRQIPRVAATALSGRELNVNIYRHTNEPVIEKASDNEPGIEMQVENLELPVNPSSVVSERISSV

In the next data set the target is 5-HT1E receptor (Homo sapiens, UniProt P28566).
5-HT1E receptor, sequence (P28566 whole entry): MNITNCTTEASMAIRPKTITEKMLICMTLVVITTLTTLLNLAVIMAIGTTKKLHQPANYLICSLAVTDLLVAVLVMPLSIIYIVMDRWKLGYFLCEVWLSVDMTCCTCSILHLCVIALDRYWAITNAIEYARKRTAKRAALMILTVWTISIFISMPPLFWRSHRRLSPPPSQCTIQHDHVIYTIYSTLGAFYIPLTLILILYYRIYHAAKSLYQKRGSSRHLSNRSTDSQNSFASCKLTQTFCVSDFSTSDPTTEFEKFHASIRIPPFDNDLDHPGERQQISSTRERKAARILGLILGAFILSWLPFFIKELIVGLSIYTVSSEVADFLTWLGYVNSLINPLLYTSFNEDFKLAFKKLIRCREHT
The next data set deals with 5-HT2A receptor (Homo sapiens, UniProt P28223).
5-HT2A receptor, sequence (P28223 whole entry): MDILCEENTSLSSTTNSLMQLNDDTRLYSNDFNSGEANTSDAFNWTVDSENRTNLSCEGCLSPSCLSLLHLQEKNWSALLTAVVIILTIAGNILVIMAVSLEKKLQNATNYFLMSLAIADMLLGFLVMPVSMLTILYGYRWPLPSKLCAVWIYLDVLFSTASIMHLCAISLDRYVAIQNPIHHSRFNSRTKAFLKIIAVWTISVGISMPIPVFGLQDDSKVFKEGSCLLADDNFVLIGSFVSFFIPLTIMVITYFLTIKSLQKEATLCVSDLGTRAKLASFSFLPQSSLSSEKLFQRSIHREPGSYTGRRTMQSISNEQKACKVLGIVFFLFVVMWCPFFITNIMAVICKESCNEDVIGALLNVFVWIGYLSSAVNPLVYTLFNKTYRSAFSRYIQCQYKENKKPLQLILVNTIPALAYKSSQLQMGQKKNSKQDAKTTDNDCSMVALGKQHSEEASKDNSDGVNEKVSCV
The next data set addresses 5-HT5A receptor (Homo sapiens, UniProt P47898).
Another data set addresses 5-HT4 receptor (Homo sapiens, UniProt Q13639).
The target in a further data set is 5-HT7 receptor (Homo sapiens, UniProt P34969).
5-HT7 receptor, sequence (P34969 whole entry): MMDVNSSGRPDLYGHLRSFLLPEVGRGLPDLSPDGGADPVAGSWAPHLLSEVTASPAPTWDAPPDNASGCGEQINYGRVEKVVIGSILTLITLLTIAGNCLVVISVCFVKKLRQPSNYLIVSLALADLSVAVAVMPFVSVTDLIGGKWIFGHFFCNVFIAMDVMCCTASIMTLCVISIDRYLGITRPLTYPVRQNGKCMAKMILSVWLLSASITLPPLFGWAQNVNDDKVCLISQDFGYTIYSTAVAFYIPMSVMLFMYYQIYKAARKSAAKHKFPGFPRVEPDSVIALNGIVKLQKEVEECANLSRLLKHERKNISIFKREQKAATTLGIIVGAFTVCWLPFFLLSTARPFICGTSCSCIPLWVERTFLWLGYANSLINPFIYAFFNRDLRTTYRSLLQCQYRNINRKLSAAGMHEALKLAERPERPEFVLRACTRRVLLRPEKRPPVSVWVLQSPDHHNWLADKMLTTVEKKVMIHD
For another data set, the target named is 5-HT1D receptor (Homo sapiens, UniProt P28221).
5-HT1D receptor, sequence (P28221 whole entry): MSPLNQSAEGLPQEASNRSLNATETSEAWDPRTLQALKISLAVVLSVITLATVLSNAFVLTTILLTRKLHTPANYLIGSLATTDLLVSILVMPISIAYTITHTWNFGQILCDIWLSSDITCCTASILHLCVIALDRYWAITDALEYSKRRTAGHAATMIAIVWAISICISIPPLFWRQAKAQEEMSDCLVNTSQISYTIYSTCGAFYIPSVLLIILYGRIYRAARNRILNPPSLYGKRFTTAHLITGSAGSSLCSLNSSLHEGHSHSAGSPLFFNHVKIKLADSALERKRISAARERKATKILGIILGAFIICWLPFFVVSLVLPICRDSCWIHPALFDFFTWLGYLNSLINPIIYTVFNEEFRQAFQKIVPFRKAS
The target in another data set is 5-HT6 receptor (Homo sapiens, UniProt P50406).
5-HT6 receptor, sequence (P50406 whole entry): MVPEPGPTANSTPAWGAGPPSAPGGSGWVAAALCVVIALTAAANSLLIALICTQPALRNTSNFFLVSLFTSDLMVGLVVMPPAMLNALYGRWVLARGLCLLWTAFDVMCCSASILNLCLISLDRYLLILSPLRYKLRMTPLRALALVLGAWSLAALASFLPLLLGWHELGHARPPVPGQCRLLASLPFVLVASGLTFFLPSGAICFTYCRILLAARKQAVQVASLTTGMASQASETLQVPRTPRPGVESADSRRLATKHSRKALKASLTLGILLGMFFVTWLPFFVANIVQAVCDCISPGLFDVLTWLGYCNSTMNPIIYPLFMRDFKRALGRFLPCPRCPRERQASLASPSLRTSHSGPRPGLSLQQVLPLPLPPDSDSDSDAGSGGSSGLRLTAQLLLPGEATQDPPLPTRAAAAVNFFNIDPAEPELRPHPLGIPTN
Another data set has as its target T2, 5-HT1A receptor (Homo sapiens, UniProt P08908).
T2 sequence (P08908 1-422): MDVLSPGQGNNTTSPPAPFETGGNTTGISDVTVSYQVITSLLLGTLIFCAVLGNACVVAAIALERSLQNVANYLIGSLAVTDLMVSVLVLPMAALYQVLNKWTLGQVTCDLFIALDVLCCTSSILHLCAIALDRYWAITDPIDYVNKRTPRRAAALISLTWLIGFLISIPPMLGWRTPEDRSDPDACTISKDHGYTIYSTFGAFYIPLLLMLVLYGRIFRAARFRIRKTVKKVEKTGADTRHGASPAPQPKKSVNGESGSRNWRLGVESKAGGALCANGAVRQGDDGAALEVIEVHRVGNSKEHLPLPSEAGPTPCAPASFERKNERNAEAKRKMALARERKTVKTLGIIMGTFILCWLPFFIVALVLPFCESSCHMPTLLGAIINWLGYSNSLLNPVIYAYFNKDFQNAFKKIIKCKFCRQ

The next data set concerns the target T3, 5-HT1F receptor (Homo sapiens, UniProt P30939).
T3 sequence (P30939 1-366): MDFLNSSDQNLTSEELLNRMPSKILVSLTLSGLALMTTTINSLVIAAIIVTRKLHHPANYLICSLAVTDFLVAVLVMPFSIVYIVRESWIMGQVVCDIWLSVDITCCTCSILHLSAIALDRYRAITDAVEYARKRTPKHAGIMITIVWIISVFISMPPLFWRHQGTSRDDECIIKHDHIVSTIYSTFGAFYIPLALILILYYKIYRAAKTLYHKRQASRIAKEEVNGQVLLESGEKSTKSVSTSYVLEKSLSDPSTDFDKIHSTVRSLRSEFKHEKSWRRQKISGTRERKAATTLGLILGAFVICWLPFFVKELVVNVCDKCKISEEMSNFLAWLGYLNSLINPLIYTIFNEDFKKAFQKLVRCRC

Data set [1] has as its system adrenergic beta receptors.
Data set [2] concerns adrenergic alpha2 receptors.
The target in data set [3] is dopaminergic D1 receptors (Homo sapiens, UniProt P21728).
dopaminergic D1 receptors, sequence (P21728 whole entry): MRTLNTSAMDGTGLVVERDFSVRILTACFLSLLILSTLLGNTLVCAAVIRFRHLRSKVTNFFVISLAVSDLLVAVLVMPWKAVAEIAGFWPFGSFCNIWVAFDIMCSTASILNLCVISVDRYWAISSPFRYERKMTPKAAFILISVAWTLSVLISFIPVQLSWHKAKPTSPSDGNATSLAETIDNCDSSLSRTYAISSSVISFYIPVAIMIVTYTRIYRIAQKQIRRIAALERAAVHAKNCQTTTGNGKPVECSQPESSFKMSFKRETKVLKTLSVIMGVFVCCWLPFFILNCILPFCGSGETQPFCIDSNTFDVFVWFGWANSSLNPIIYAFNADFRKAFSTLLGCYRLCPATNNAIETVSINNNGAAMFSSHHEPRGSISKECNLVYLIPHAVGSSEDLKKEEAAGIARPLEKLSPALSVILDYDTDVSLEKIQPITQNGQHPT
Data set [4] concerns the target dopaminergic D2 receptors (Homo sapiens, UniProt P14416).
A further data set concerns the target 5-HT1B receptor (Homo sapiens, UniProt P28222).
In the next data set the target is 5-HT2B receptor (Homo sapiens, UniProt P41595).
5-HT2B receptor, sequence (P41595 whole entry): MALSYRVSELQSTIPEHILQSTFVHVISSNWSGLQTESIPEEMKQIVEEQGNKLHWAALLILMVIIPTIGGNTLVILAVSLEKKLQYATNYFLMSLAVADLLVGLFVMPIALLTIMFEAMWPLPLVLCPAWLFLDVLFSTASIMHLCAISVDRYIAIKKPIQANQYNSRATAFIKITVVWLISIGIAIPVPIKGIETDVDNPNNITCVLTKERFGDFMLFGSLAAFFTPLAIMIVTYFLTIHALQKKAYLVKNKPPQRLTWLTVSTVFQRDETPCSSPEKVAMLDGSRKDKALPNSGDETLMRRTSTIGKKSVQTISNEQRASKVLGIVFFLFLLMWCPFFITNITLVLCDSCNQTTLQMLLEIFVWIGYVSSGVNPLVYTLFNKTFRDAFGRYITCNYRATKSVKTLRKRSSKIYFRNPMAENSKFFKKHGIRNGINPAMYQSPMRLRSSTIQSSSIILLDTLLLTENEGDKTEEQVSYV
The test system of data set [5] is adrenergic alpha1 receptors.

5-HT5A receptor, sequence (P47898 whole entry): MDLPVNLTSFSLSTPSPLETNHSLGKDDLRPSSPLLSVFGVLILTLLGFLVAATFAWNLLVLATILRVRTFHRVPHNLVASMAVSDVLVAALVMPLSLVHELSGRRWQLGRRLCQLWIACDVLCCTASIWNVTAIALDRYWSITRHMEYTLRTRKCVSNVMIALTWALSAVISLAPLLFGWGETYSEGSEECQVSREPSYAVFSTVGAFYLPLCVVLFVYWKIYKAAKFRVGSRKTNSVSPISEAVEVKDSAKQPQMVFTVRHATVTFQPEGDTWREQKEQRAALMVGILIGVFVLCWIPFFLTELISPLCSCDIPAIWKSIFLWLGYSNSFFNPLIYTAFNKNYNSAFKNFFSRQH
5-HT1B receptor, sequence (P28222 whole entry): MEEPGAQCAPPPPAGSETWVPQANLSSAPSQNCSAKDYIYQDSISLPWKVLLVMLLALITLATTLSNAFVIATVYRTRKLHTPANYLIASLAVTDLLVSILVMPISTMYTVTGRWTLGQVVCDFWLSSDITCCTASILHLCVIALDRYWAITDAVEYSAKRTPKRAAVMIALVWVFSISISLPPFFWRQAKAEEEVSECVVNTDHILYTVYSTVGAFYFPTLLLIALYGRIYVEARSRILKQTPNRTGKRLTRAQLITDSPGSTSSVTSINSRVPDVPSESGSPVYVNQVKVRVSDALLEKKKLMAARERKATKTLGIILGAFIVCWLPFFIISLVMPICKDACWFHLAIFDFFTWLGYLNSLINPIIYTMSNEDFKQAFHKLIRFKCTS
dopaminergic D2 receptors, sequence (P14416 whole entry): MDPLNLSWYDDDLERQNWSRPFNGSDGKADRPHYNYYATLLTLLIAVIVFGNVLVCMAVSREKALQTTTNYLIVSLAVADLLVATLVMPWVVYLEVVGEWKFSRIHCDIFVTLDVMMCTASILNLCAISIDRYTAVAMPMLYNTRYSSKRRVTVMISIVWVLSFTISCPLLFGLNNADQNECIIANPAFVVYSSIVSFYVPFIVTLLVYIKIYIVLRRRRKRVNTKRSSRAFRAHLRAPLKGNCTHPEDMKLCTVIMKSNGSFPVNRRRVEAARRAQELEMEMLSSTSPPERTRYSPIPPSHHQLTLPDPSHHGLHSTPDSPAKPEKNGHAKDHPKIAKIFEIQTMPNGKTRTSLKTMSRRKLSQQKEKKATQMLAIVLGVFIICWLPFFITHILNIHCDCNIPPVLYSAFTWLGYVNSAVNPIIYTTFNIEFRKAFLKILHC
5-HT4 receptor, sequence (Q13639 whole entry): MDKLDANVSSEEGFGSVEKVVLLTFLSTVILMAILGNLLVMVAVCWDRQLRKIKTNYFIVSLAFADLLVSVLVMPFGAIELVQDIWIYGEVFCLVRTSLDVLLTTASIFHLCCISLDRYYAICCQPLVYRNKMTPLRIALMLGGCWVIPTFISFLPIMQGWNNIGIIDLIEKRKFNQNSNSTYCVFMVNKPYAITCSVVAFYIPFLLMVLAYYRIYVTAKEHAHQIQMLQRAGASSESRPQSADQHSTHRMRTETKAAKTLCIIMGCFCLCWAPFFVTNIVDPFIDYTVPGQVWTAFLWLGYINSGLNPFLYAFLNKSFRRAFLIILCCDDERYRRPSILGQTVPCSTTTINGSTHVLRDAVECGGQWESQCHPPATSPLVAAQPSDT

`CN1CCC[C@@H]1Cc1c[nH]c2ccc(CCS(=O)(=O)c3ccccc3)cc12` [Eletriptan, 3-(N-methyl-2(R)-pyrrolidinylmethyl)-5-(2-phenylsulphonylethyl)-1H-indole]: the affinity result in the data set on 5-HT3 receptor was “little or no affinity”; at 5-HT2C receptor it was “little or no affinity”; at 5-HT1E receptor it was “modest affinity”; at 5-HT2A receptor, “little or no affinity”; at 5-HT5A receptor it was “little or no affinity”; at 5-HT4 receptor, “little or no affinity”. Moreover, the affinity result on 5-HT7 receptor is on record as “modest affinity”; at 5-HT1D receptor, “high affinity”; on 5-HT6 receptor it was “little or no affinity”; at 5-HT1A receptor, “modest affinity”; at 5-HT1F receptor, “high affinity”; at 5-HT1B receptor it was “high affinity”. For the same molecule, the affinity result on 5-HT2B receptor is “modest affinity”. In addition, the “affinity or pharmacological activity” value (in data set [1]; in data set [2]; in the data set with opioid receptors; in [3]; in data set [4]; with muscarinic receptors) was “no significant affinity or pharmacological activity” in each case. The “affinity or pharmacological activity” value in [5] was “no significant affinity or pharmacological activity”.
